Test results published in ChEMBL document CHEMBL1201862, “PubChem BioAssay data set” (2004).
The source made the active and inactive calls.

Key:
[1] = Luminescence Cell-Based Dose Confirmation HTS to Identify Inhibitors of Polyadenylation.; assay type: functional
cells [2] = assay type: functional
[3] = target: Mothers against decapentaplegic homolog 3 (Homo sapiens, UniProt P84022); assay: SMAD3 transcription factor inhibitors, dose response (AID 715); assay type: functional
H9c2 = assay: cells; assay type: functional, cell-based; settings: Rattus norvegicus, H9c2, Myocardium;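 note: confirmatory concentration-response retest of ultra-high-throughput screening hits for modulation of myocardial damage; cell death induced by hydrogen peroxide oxidative stress; compound pretreatment for 60 min then peroxide exposure for 2 h; potency is for protecting the cells against peroxide damage rather than for killing them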
[4] = luciferase reporter signal reduction – luminescence, H4-C neuroglioblastoma cells, dose response (AID 2458); assay type: functional, cell-based;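 note: H4 neuroglioblastoma cells stably carrying a luciferase reporter gene fusion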
Fatty acid synthase [5] = target: T1, Fatty acid synthase (Homo sapiens, UniProt P49327); assay: FAS thioesterase domain inhibitors, dose response, biochemical, endpoint fluorescence intensity, uHTS hits (AID 624327); assay type: functional;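 note: fluorescence from hydrolysis of an O-methyl fluorescein acyl ester substrate by the enzyme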
T1 sequence (P49327 whole entry, the tested form may be a part): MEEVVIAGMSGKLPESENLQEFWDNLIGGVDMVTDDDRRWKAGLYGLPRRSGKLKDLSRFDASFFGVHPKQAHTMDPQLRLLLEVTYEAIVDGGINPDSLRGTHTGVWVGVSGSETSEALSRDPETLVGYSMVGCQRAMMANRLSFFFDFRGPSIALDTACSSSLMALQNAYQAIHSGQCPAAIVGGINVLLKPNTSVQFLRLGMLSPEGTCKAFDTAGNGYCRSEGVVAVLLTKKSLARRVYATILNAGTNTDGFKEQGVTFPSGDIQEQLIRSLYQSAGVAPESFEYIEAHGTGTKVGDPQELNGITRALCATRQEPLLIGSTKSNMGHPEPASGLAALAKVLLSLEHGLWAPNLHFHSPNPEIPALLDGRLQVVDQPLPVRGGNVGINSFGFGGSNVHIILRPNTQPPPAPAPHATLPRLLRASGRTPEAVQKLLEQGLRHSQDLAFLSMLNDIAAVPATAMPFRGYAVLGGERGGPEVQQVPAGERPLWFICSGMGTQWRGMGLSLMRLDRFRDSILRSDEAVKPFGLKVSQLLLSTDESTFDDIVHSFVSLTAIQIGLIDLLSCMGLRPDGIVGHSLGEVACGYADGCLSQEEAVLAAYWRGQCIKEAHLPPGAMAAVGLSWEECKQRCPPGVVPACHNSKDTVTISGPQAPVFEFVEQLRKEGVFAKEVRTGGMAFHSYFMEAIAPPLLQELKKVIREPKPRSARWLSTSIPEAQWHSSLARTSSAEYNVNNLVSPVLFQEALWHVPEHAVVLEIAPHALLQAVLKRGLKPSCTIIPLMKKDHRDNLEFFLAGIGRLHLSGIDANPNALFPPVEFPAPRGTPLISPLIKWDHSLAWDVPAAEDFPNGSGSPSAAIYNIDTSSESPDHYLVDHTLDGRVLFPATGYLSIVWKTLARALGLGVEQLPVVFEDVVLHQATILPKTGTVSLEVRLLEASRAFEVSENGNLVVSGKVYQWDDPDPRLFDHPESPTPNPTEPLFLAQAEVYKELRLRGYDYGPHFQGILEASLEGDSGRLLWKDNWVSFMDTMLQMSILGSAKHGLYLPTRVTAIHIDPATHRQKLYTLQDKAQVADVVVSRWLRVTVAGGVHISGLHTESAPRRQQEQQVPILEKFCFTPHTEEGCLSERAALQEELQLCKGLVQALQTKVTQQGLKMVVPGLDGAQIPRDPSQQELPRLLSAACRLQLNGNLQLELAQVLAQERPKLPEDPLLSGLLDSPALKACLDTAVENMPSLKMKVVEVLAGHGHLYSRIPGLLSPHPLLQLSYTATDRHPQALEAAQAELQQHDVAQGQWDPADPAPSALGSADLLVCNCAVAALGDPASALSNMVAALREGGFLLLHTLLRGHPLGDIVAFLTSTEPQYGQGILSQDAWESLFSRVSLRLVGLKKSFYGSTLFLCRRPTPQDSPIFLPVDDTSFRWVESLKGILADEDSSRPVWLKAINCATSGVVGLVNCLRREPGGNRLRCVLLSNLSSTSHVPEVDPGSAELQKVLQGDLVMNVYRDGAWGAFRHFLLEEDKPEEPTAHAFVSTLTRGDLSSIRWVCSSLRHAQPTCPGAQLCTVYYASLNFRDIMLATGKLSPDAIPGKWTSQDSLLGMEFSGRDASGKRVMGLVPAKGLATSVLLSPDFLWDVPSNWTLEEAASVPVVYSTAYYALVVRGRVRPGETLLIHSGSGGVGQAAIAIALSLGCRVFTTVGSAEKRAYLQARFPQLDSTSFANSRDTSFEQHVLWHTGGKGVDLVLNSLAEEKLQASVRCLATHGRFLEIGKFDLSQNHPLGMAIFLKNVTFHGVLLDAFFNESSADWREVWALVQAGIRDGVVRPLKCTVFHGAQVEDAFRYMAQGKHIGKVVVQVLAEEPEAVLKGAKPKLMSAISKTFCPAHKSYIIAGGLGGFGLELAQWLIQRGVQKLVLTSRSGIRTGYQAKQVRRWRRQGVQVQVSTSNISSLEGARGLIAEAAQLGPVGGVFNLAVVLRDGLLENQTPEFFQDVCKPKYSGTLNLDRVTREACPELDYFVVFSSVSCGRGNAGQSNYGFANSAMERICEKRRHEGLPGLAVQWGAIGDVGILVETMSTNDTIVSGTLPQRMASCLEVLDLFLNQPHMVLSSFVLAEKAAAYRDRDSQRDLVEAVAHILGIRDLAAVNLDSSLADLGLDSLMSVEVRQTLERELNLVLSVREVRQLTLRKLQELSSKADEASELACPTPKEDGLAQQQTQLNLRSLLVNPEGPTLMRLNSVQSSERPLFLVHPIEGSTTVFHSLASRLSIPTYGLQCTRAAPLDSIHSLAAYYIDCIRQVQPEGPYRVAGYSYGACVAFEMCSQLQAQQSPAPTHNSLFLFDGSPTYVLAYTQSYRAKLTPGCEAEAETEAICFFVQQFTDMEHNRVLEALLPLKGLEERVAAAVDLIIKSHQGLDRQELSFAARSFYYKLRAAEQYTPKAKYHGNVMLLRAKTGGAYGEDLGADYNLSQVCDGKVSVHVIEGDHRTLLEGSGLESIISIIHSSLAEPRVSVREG

Streptococcus = assay: Group A Streptococcus viability loss, dose response, counter-screen for streptokinase expression inhibitor project, luminescence, BacTiterGlo (AID 1915); assay type: functional, organism-based;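 note: potency for reduction of bacterial viability or growth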
Paired box protein Pax-8 = Paired box protein Pax-8 (Homo sapiens, UniProt Q06710); assay: inhibitors of PAX8-driven TPO luciferase reporter, dose response, RMG-I cells, cherry-pick (AID 687027); assay type: functional, cell-based;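 note: luciferase reporter driven by Pax8 target thyroperoxidase promoter measured by SteadyGlo luminescence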
Chain of Paired box protein Pax-8 (Q06710 whole entry): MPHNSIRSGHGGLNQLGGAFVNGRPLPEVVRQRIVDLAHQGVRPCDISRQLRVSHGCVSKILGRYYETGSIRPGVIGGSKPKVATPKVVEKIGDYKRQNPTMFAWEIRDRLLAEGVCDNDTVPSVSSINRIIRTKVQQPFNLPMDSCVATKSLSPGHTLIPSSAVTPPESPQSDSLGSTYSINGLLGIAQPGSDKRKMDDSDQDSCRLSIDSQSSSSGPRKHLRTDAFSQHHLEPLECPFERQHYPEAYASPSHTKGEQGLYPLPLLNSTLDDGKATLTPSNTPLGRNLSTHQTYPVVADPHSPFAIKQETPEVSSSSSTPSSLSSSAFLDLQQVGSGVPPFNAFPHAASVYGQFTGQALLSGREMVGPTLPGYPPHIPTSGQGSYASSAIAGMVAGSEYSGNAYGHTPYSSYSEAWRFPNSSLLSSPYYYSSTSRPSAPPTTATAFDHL

cells [6] = assay type: functional, cell-based
[7] = inhibitors of SNCA 5'UTR-driven translation, confirmation, luminescence, H4 neuroglioblastoma cells, dose confirmation (AID 2454); assay type: functional, cell-based;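 note: H4 neuroglioblastoma cells carrying an alpha-synuclein 5'UTR luciferase reporter; potency for inhibition of the luciferase signal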
[8] = target: Photoreceptor-specific nuclear receptor (Homo sapiens, UniProt Q9Y5X4); assay type: functional, cell-based;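 note: CHO-S cells with Gal4-NCOR and VP16-NR2E3 two-hybrid luciferase reporter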
[9] = system: Streptococcus sp. 'group A'; assay: growth inhibition of control SK(-) GAS strain, dose response, counter-screen for streptokinase expression inhibitor project, luminescence, kanamycin, BacTiterGlo, confirmation (AID 1900); assay type: functional, organism-based
Fatty acid synthase [10] = target: T1, Fatty acid synthase; assay: FAS thioesterase domain inhibitors, dose response, biochemical, kinetic fluorescence intensity (AID 624326); assay type: functional;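 note: rate of fluorescence rise from hydrolysis of a fluorogenic O-methyl fluorescein ester substrate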
[11] = Luminescence Cell-Based Dose Response HTS to Identify Inhibitors of 5'UTR Stem-Loop Driven Prion Protein mRNA Translation in H4 Neuroglioblastoma Cells. [Related pubchem assays: 1827 (Project Summary), 1813 (Primary HTS)]; assay type: functional
[12] = inhibitors of SNCA 5'UTR-driven reporter translation, confirmation, H4 neuroglioma cells, luminescence (AID 1988); assay type: functional, cell-based
Streptokinase A = target: T2, Streptokinase A (Streptococcus pyogenes serotype M1, UniProt P10520); assay: S. pyogenes streptokinase expression inhibitors, potency, dose response, plasminogen activation absorbance, OD405 (AID 1914); assay type: functional, Streptococcus pyogenes M1 GAS;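 note: secreted streptokinase activity via plasminogen activation per viability signal from cell pellet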
T2 sequence (P10520 whole entry): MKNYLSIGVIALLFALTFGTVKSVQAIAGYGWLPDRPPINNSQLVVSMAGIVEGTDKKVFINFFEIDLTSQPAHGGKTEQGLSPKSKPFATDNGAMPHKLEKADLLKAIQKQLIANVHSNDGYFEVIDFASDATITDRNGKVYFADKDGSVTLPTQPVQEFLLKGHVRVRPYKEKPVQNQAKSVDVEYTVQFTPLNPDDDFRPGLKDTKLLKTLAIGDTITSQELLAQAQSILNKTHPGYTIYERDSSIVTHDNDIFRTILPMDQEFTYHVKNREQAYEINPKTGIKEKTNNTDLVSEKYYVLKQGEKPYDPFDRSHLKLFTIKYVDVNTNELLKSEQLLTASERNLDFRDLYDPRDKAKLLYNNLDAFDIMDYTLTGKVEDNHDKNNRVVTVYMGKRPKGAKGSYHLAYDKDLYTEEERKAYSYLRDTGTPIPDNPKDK

[13] = Luminescence-based dose response cell-based high throughput screening assay for cytotoxic compounds using the IEC-6 intestinal epithelial cell line. [Related pubchem assays: 1858 (Summary AID.), 1825 (Counterscreen.), 1907 (Confirmation screen.)]; assay type: functional
[14] = inhibitors of firefly luciferase expression or activity, dose response, H4 neuroglioma cells, luminescence (AID 1990); assay type: functional, cell-based
Prothrombin = Prothrombin (Homo sapiens, UniProt P00734); assay: Thrombin 1536 HTS Dose Response Confirmation. [Related pubchem assays: 1046 (Thrombin 1536 HTS; hits were confirmed in this assay)]; assay type: functional
Coagulation factor XII = target: T3, Coagulation factor XII (Homo sapiens, UniProt P00748); assay type: functional;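 note: activated factor XIIa alpha cleaving a fluorogenic AMC peptide substrate; inhibitor potency from loss of enzyme activity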
T3 sequence (P00748 whole entry): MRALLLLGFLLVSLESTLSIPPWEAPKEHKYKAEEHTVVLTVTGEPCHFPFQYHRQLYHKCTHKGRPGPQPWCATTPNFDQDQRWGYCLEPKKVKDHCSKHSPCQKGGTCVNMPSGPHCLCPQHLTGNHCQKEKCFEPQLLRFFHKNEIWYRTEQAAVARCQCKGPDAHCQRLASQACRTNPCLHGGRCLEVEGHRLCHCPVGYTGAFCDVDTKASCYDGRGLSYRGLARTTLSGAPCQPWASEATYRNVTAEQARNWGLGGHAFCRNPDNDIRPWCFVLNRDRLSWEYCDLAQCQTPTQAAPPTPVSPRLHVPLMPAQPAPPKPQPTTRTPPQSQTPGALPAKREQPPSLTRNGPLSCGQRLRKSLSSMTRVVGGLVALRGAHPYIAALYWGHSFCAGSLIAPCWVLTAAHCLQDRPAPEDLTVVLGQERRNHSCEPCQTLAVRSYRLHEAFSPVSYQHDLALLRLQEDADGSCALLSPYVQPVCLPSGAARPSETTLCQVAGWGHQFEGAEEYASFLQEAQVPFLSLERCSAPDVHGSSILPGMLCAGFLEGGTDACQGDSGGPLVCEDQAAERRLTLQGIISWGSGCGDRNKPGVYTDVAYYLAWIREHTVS

Genome polyprotein = Genome polyprotein (dengue virus type 2, UniProt P29990); assay: Dengue-2 NS5 methyltransferase inhibitors, primary screen, biochemical, confirmation dose response (AID 588689); assay type: functional
Chain of Genome polyprotein (P29990 2492-3391 limits assumed): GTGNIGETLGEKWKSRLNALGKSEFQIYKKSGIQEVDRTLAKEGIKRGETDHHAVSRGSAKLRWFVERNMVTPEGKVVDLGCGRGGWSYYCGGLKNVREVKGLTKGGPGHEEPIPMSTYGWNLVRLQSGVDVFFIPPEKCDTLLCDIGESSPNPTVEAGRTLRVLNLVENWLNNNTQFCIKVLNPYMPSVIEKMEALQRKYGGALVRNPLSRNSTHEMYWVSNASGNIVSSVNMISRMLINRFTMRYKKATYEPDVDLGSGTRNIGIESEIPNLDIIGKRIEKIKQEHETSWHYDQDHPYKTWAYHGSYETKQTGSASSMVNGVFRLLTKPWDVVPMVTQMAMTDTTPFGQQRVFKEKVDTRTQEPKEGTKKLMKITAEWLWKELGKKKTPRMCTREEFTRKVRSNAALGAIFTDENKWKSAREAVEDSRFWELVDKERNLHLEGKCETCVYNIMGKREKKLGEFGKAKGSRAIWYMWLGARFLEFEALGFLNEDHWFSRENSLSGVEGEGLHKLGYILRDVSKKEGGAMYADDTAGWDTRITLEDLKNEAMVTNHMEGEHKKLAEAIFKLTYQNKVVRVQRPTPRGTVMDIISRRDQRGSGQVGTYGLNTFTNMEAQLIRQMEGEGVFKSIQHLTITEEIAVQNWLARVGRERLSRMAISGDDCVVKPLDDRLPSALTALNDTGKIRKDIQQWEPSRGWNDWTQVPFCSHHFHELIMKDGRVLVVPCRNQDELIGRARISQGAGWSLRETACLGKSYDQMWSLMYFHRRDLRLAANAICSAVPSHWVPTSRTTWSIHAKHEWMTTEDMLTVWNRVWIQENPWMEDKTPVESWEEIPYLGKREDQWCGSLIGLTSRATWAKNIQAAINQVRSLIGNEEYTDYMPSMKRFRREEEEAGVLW

[15] = target: Peroxisome proliferator-activated receptor gamma/Nuclear receptor coactivator 2 (Homo sapiens, UniProt P37231); assay: TR-FRET dose response biochemical High Throughput Screening assay for agonists of the steroid receptor coactivator 2 (SRC-2) recruitment by the peroxisome proliferator-activated receptor gamma (PPAR gamma): non-selective agonists. [Related pubchem assays: 1297, 1032 ]; assay type: functional
Estrogen receptor beta = Estrogen receptor beta (Homo sapiens, UniProt Q92731); assay: ERβ–SRC-3 coactivator interaction inhibitors, confirmation, orthogonal assay, biochemical, ELISA, streptavidin-HRP readout (AID 1060)
Chain of Estrogen receptor beta (Q92731 whole entry): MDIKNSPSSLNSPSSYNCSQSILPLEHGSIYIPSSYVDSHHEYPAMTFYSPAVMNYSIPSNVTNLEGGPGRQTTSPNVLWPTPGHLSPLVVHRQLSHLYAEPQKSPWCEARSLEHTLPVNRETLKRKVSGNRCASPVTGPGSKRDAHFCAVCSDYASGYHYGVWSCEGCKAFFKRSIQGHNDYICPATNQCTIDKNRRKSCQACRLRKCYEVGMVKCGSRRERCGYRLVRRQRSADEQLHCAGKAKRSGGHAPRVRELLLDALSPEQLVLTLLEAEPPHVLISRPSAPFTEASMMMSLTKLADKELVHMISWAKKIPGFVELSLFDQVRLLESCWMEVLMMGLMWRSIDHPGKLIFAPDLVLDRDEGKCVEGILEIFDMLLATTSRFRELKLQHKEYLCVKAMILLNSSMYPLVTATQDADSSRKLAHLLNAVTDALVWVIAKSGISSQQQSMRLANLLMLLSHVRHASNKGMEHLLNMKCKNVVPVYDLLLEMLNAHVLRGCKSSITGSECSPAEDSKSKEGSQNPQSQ

[16] = target: Peroxisome proliferator-activated receptor gamma/Nuclear receptor coactivator 1 (Homo sapiens, UniProt P37231); assay: TR-FRET dose response biochemical High Throughput Screening assay for agonists of the steroid receptor coactivator 1 (SRC-1) recruitment by the peroxisome proliferator-activated receptor gamma (PPAR gamma): non-selective agonists. [Related pubchem assays (depositor defined):AID1300, AID1808, AID504735, AID631]; assay type: protein assay
[17] = target: T4, Heat shock factor protein 1 (Mus musculus, UniProt P38532); assay: HSF1 potentiators in luciferase reporter cells, confirmation, cell-based, NIH3T3, luminescence, dose retest (AID 435004); assay type: functional;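 note: stress induced by proteasome inhibitor MG132 added 30 min after compound; luciferase reporter driven by HSF1 response element in NIH3T3 cells; actives raise luminescence as potentiators of the MG132 stress response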
T4 sequence (P38532 whole entry): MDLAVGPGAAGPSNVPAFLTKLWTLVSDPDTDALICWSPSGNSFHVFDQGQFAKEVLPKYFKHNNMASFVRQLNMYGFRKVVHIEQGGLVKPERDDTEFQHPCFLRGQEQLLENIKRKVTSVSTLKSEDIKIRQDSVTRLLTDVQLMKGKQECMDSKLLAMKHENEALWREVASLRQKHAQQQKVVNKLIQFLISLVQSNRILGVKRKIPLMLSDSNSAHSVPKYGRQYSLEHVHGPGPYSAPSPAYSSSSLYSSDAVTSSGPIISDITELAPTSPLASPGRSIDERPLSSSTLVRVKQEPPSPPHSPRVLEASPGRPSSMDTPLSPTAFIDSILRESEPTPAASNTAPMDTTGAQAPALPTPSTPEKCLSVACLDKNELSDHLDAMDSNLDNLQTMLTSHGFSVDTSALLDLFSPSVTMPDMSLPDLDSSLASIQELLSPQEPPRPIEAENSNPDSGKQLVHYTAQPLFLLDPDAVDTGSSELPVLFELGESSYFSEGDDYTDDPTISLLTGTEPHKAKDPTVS

[18] = target: Peroxisome proliferator-activated receptor gamma/Nuclear receptor coactivator 3 (Homo sapiens, UniProt P37231); assay: TR-FRET dose response biochemical High Throughput Screening assay for agonists of the steroid receptor coactivator 3 (SRC-3) recruitment by the peroxisome proliferator-activated receptor gamma (PPAR gamma): non-selective agonists. [Related pubchem assays: 1301 (Confirmation screen.), 1048 (Primary screen.)]; assay type: functional
[19] = target: T5, Aryl hydrocarbon receptor (Homo sapiens, UniProt P35869); settings: Potency;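 note: confirmatory quantitative high-throughput screen measuring activation of the AhR signaling pathway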
T5 sequence (P35869 whole entry): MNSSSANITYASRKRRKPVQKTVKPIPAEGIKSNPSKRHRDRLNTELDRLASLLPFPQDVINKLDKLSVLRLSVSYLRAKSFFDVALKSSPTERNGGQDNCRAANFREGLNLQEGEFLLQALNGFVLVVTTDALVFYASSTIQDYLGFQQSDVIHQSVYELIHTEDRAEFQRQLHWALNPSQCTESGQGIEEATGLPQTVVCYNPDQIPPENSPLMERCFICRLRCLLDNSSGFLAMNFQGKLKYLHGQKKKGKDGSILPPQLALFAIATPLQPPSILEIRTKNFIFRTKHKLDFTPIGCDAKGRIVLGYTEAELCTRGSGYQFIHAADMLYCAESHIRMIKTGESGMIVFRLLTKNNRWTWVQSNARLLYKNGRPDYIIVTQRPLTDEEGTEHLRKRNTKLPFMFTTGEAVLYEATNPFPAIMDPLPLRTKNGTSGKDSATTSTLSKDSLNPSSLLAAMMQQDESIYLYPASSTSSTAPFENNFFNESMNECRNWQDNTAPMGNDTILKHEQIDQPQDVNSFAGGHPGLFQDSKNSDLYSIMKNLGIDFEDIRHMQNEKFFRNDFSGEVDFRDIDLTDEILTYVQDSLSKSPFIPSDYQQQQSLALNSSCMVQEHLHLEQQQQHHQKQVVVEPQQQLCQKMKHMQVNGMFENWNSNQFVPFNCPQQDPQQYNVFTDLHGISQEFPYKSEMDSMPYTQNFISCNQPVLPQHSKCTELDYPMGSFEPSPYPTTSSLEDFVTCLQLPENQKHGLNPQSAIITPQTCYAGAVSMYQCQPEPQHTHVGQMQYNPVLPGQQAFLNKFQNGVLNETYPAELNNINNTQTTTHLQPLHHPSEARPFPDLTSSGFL

[20] = cytotoxicity in KRAS-transformed pancreatic duct cells, primary screen, cell-based, fluorescence, HTS (AID 431); assay type: functional; settings: Homo sapiens;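 note: cell line used: HPDE-C7K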
[21] = half-maximal inhibitory concentration for glucagon-like peptide-1 release, STC-1 cell line, dose-response (AID 1117345); assay type: functional, cell-based
[22] = target: Heat shock protein HSP 90-alpha (Homo sapiens, UniProt P07900); assay type: functional, organism-based
[23] = cytotoxicity in HPDE-C7 cells, cell-based, fluorescence, HTS (AID 430); assay type: functional; settings: Homo sapiens
[24] = Glucagon-like peptide 1 release potency, NCI-H716 cell line, dose-response, half-maximal inhibitory concentration (AID 1117344); assay type: functional, cell-based
[25] = target: T6, Neuropeptide Y receptor type 2 (Homo sapiens, UniProt P49146); assay type: functional, cell-based;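 note: HEK293 cells expressing the receptor and a CNG channel; stimulus was NPY near EC95 followed by isoproterenol to raise cAMP; antagonist potency measured as restoring cAMP signal that NPY suppresses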
T6 sequence (P49146 whole entry): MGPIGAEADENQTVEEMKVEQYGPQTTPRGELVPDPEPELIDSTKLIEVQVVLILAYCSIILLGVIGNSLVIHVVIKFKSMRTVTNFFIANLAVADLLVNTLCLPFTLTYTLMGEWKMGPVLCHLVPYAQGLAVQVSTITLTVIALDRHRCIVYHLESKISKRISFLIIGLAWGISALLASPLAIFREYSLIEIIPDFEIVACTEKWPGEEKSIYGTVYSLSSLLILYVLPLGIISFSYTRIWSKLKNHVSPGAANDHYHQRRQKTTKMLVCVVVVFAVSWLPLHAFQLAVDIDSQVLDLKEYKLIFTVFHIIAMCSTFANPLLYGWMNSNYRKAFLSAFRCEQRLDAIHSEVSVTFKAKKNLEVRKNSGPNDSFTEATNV

[26] = target: T7, Ubiquitin-conjugating enzyme E2 N (Homo sapiens, UniProt P61088); assay type: functional;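 note: Dose-response confirmation in a TR-FRET assay detecting UBC13-driven polyubiquitin chain formation, inhibition measured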
T7 sequence (P61088 whole entry): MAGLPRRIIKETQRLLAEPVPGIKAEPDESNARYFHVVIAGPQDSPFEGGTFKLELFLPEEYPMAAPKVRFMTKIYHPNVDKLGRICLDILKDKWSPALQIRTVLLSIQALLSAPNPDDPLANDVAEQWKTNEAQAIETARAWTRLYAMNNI

Chain of Mothers against decapentaplegic homolog 3 (P84022 whole entry): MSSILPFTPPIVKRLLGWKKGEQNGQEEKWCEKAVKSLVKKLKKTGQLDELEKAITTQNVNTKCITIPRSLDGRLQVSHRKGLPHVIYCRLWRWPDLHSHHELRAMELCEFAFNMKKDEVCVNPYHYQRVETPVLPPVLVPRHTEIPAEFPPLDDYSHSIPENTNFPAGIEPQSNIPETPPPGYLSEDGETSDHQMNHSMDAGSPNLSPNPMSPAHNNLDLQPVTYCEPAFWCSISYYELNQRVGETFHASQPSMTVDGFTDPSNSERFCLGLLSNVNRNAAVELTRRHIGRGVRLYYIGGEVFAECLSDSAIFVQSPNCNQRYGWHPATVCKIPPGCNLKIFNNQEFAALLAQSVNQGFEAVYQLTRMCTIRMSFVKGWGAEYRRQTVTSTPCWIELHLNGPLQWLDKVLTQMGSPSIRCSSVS

COc1cccc2cc(-c3nc4ccccc4o3)c(=O)oc12
EC50 [1]: > 120 µM (not active) | IC50 (cells [2]): 14.9 µM (active)

Cc1ccc(N2C(=O)CS/C2=C(\C(Cl)=C(Cl)Cl)[N+](=O)[O-])cc1
IC50 [3]: 27.7 µM (active) | IC50 (H9c2): > 79 µM (inactive)

CC(C)N1CCc2c(sc(NC(=O)c3ccc([N+](=O)[O-])o3)c2C(N)=O)C1
EC50 [4]: 0.3 µM (active) | IC50 (Fatty acid synthase [5]): 6.27 µM (active) | EC50 (Streptococcus): 8.99 µM (active) | AC50 (Paired box protein Pax-8): 1.16 µM (active) | EC50 (cells [6]): 0.496 µM (active) | EC50 [7]: 0.953 µM (active) | IC50 [8]: 4.58 µM (active) | EC50 [9]: 3.19 µM (active) | IC50 (Fatty acid synthase [10]): 5.65 µM (active) | EC50 [11]: < 0.1 µM (active) | EC50 [12]: 0.145 µM (active) | EC50 (Streptokinase A): > 150 µM (not active) | IC50 [13]: 1.32 µM (active) | EC50 [14]: 4.38 µM (active)

Cc1ccc(S(=O)(=O)ON2C(=O)c3ccccc3C2=O)c(C)c1
IC50 (Prothrombin): 0.856 µM (active) | IC50 (Fatty acid synthase [5]): 1.35 µM (active) | IC50 (Fatty acid synthase [10]): 1.39 µM (active) | IC50 (Coagulation factor XII): 8.48 µM (active) | IC50 (Genome polyprotein): 96.3 µM (active)

Cc1cc2c(cc1S(=O)(=O)N(C)c1ccccc1)n(C)c(=O)n2C
EC50 [1]: > 120 µM (not active)

COC(=O)c1ccc(CSc2ncnc3c2oc2ccccc23)o1
EC50 [15]: > 8.82 µM (not active) | IC50 (Estrogen receptor beta): 0.0578 µM (not active) | IC50 [3]: 14.7 µM (active) | EC50 [16]: 29.1 µM (inactive) | EC50 [17]: > 260 µM (inactive) | EC50 [18]: > 79.4 µM (not active)

Clc1ccc(COC(Cn2ccnc2)c2ccc(Cl)cc2Cl)cc1 (stereo not drawn) [ECONAZOLE NITRATE]
AC50 [19]: 56.2 µM (inconclusive) | EC50 [20]: 15.4 µM (active) | IC50 [21]: 4.29 µM (active) | AC50 [22]: 0.267 µM (active) | EC50 [23]: 15.9 µM (active) | IC50 [24]: 25.6 µM (inactive) | IC50 [25]: 8.02 µM (active) | IC50 [26]: > 20 µM (inactive)
